Test system: patients with advanced renal cell carcinoma
Settings: in vivo
Description: Treatment modifications, including interruptions and dose reductions, were allowed to manage adverse events. […] Patients were allowed to continue study treatment beyond radiographic progression at the discretion of the investigator. On-study crossover between treatment groups was not permitted. Safety evaluations, including physical examination, vital signs, and laboratory assessments, were conducted every 2 weeks for the first 8 weeks and then every 4 weeks thereafter. ECG assessments were performed every 4 weeks for the first 8 weeks and then every 12 weeks. A safety follow-up visit was scheduled 30 days after treatment discontinuation. Adverse events were assessed by investigators and graded according to CTCAE version 4.0.
Safety analyses were limited to patients who received any amount of study treatment.

CO[C@H]1C[C@@H]2CC[C@@H](C)[C@@](O)(O2)C(=O)C(=O)N2CCCC[C@H]2C(=O)O[C@H]([C@H](C)C[C@@H]2CC[C@@H](OCCO)[C@H](OC)C2)CC(=O)[C@H](C)/C=C(\C)[C@@H](O)[C@@H](OC)C(=O)[C@H](C)C[C@H](C)/C=C/C=C/C=C/1C [everolimus]
ALP increased, All Grades (human): 29% | ALP increased, Grade 3-4 (human): 1% | ALT increased, All Grades (human): 32% | ALT increased, Grade 3-4 (human): <1% | AST increased, All Grades (human): 40% | AST increased, Grade 3-4 (human): <1% | Abdominal pain, All Grades (human): 13% | Abdominal pain, Grade 1-2 (human): 27 (8) n (%) | Abdominal pain, Grade 3 (human): 5 (2) n (%) | Abdominal pain, Grade 3-4 (human): 2% | Abdominal pain, Grade 4 (human): 0 n (%) | Absolute neutrophil count decreased, All Grades (human): 17% | Absolute neutrophil count decreased, Grade 3-4 (human): <1% | Adverse reactions led to study treatment being held (human): 59% | Adverse reactions led to study treatment discontinuation (human): 10% | Alanine aminotransferase increased, Grade 1-2 (human): 20 (6) n (%) | Alanine aminotransferase increased, Grade 3 (human): 1 (<1) n (%) | Alanine aminotransferase increased, Grade 4 (human): 0 n (%) | Anemia, All Grades (human): 38% | Anemia, Grade 1-2 (human): 73 (23) n (%) | Anemia, Grade 3 (human): 53 (17) n (%) | Anemia, Grade 3-4 (human): 16% | Anemia, Grade 4 (human): 0 n (%) | Anemia, all grades (human): 126 (39%) n (%) | Anemia, grade 3 or 4 (human): 53 [17%] n [%] | Any AE, Grade 1-2 (human): 103 (32) n (%) | Any AE, Grade 3 (human): 167 (52) n (%) | Any AE, Grade 4 (human): 26 (8) n (%) | Arthralgia, All Grades (human): 14% | Arthralgia, Grade 1-2 (human): 46 (14) n (%) | Arthralgia, Grade 3 (human): 4 (1) n (%) | Arthralgia, Grade 3-4 (human): 1% | Arthralgia, Grade 4 (human): 0 n (%) | Aspartate aminotransferase increased, Grade 1-2 (human): 19 (6) n (%) | Aspartate aminotransferase increased, Grade 3 (human): 1 (<1) n (%) | Aspartate aminotransferase increased, Grade 4 (human): 0 n (%) | Asthenia, All Grades (human): 16% | Asthenia, Grade 1-2 (human): 46 (14) n (%) | Asthenia, Grade 3 (human): 8 (3) n (%) | Asthenia, Grade 3-4 (human): 2% | Asthenia, Grade 4 (human): 0 n (%) | Back pain, Grade 1-2 (human): 41 (13) n (%) | Back pain, Grade 3 (human): 7 (2) n (%) | Back pain, Grade 4 (human): 0 n (%) | Blood creatinine increased, Grade 1-2 (human): 39 (12) n (%) | Blood creatinine increased, Grade 3 (human): 0 n (%) | Blood creatinine increased, Grade 4 (human): 0 n (%) | Constipation, All Grades (human): 19% | Constipation, Grade 1-2 (human): 64 (20) n (%) | Constipation, Grade 3 (human): 1 (<1) n (%) | Constipation, Grade 3-4 (human): <1% | Constipation, Grade 4 (human): 0 n (%) | Cough, All Grades (human): 33% | Cough, Grade 1-2 (human): 107 (33) n (%) | Cough, Grade 3 (human): 3 (<1) n (%) | Cough, Grade 3-4 (human): <1% | Cough, Grade 4 (human): 0 n (%) | Creatinine increased, All Grades (human): 71% | Creatinine increased, Grade 3-4 (human): 0% | Decreased appetite, All Grades (human): 34% | Decreased appetite, Grade 1-2 (human): 111 (35) n (%) | Decreased appetite, Grade 3 (human): 3 (<1) n (%) | Decreased appetite, Grade 3-4 (human): <1% | Decreased appetite, Grade 4 (human): 0 n (%) | Decreased appetite, all grades (human): 114 (3-5%) n (%) | Diarrhea, All Grades (human): 28% | Diarrhea, Grade 1-2 (human): 85 (26) n (%) | Diarrhea, Grade 3 (human): 7 (2) n (%) | Diarrhea, Grade 3-4 (human): 2% | Diarrhea, Grade 4 (human): 0 n (%) | Discontinuation due to a primary reason of AE (excluding disease progression) (human): 10% | Dizziness, All Grades (human): 7% | Dizziness, Grade 1-2 (human): 21 (7) n (%) | Dizziness, Grade 3 (human): 0 n (%) | Dizziness, Grade 3-4 (human): 0% | Dizziness, Grade 4 (human): 0 n (%) | Dry skin, All Grades (human): 10% | Dry skin, Grade 1-2 (human): 35 (11) n (%) | Dry skin, Grade 3 (human): 0 n (%) | Dry skin, Grade 3-4 (human): 0% | Dry skin, Grade 4 (human): 0 n (%) | Dysgeusia, All Grades (human): 9% | Dysgeusia, Grade 1-2 (human): 30 (9) n (%) | Dysgeusia, Grade 3 (human): 0 n (%) | Dysgeusia, Grade 3-4 (human): 0% | Dysgeusia, Grade 4 (human): 0 n (%) | Dyspepsia, All Grades (human): 5% | Dyspepsia, Grade 1-2 (human): 15 (5) n (%) | Dyspepsia, Grade 3 (human): 0 n (%) | Dyspepsia, Grade 3-4 (human): 0% | Dyspepsia, Grade 4 (human): 0 n (%) | Dysphonia, All Grades (human): 4% | Dysphonia, Grade 1-2 (human): 16 (5) n (%) | Dysphonia, Grade 3 (human): 0 n (%) | Dysphonia, Grade 3-4 (human): 0% | Dysphonia, Grade 4 (human): 0 n (%) | Dyspnea, All Grades (human): 29% | Dyspnea, Grade 3-4 (human): 4% | Dyspnoea, Grade 1-2 (human): 82 (26) n (%) | Dyspnoea, Grade 3 (human): 11 (3) n (%) | Dyspnoea, Grade 4 (human): 3 (<1) n (%) | Edema peripheral, Grade 1-2 (human): 70 (22) n (%) | Edema peripheral, Grade 3 (human): 6 (2) n (%) | Edema peripheral, Grade 4 (human): 0 n (%) | Epistaxis, Grade 1-2 (human): 46 (14) n (%) | Epistaxis, Grade 3 (human): 0 n (%) | Epistaxis, Grade 4 (human): 0 n (%) | Events of arterial thromboembolism (human): 0.3% | Fatigue, All Grades (human): 47% | Fatigue, Grade 1-2 (human): 130 (40) n (%) | Fatigue, Grade 3 (human): 24 (8) n (%) | Fatigue, Grade 3-4 (human): 7% | Fatigue, Grade 4 (human): 0 n (%) | Fatigue, all grades (human): 154 (48%) n (%) | Fatigue, grade 3 or 4 (human): 24 [7%] n [%] | Fistulas (human): 0% | Flatulence, Grade 1-2 (human): 7 (2) n (%) | Flatulence, Grade 3 (human): 0 n (%) | Flatulence, Grade 4 (human): 0 n (%) | GGT increased, All Grades (human): 43% | GGT increased, Grade 3-4 (human): 9% | Gastrointestinal (GI) perforations (human): 0.6% | Grade 3 and 4 adverse events: Diarrhea, % (human): 3% | Grade 3 or 4 Adverse Events: Diarrhea, % (human): (3) % | Grade 3 or 4 Adverse Events: Hypokalaemia, % (human): (2) % | Grade 3 or 4 Adverse Events: PPES, % (human): (1) % | Grade 3 or 4 adverse events (human): 193 (60%) n (%) | Grade 5 adverse events regardless of causality (human): 7.8% | Headache, All Grades (human): 12% | Headache, Grade 1-2 (human): 42 (13) n (%) | Headache, Grade 3 (human): 1 (<1) n (%) | Headache, Grade 3-4 (human): <1% | Headache, Grade 4 (human): 0 n (%) | Hemoglobin decreased, All Grades (human): 71% | Hemoglobin decreased, Grade 3-4 (human): 17% | Hyperglycemia, All Grades (human): 59% | Hyperglycemia, Grade 1-2 (human): 46 (14) n (%) | Hyperglycemia, Grade 3 (human): 16 (5) n (%) | Hyperglycemia, Grade 3-4 (human): 8% | Hyperglycemia, Grade 4 (human): 0 n (%) | Hyperglycemia, grade 3 or 4 (human): 16 [5%] n [%] | Hypertension, All Grades (human): 8% | Hypertension, Grade 1-2 (human): 14 (4) n (%) | Hypertension, Grade 3 (human): 12 (4) n (%) | Hypertension, Grade 3-4 (human): 3% | Hypertension, Grade 4 (human): 0 n (%) | Hypertriglyceridemia, Grade 1-2 (human): 31 (10) n (%) | Hypertriglyceridemia, Grade 3 (human): 7 (2) n (%) | Hypertriglyceridemia, Grade 4 (human): 3 (<1) n (%) | Hypoalbuminemia, All Grades (human): 28% | Hypoalbuminemia, Grade 3-4 (human): <1% | Hypomagnesaemia, Grade 1-2 (human): 5 (2) n (%) | Hypomagnesaemia, Grade 3 (human): 0 n (%) | Hypomagnesaemia, Grade 4 (human): 0 n (%) | Hypomagnesemia, All Grades (human): 4% | Hypomagnesemia, Grade 3-4 (human): <1% | Hyponatremia, All Grades (human): 26% | Hyponatremia, Grade 3-4 (human): 6% | Hypophosphatemia, All Grades (human): 36% | Hypophosphatemia, Grade 3-4 (human): 5% | Hypothyroidism, All Grades (human): <1% | Hypothyroidism, Grade 1-2 (human): 1 (<1) n (%) | Hypothyroidism, Grade 3 (human): 1 (<1) n (%) | Hypothyroidism, Grade 3-4 (human): <1% | Hypothyroidism, Grade 4 (human): 0 n (%) | Incidence of Grade ≥3 hemorrhagic events (human): 1.6% | Insomnia, Grade 1-2 (human): 33 (10) n (%) | Insomnia, Grade 3 (human): 1 (<1) n (%) | Insomnia, Grade 4 (human): 0 n (%) | Lymphocytes decreased, All Grades (human): 39% | Lymphocytes decreased, Grade 3-4 (human): 12% | Mucosal inflammation, All Grades (human): 23% | Mucosal inflammation, Grade 1-2 (human): 64 (20) n (%) | Mucosal inflammation, Grade 3 (human): 10 (3) n (%) | Mucosal inflammation, Grade 3-4 (human): 3% | Mucosal inflammation, Grade 4 (human): 1 (<1) n (%) | Muscle spasms, All Grades (human): 5% | Muscle spasms, Grade 1-2 (human): 17 (5) n (%) | Muscle spasms, Grade 3 (human): 0 n (%) | Muscle spasms, Grade 3-4 (human): 0% | Muscle spasms, Grade 4 (human): 0 n (%) | Nausea, All Grades (human): 28% | Nausea, Grade 1-2 (human): 92 (29) n (%) | Nausea, Grade 3 (human): 1 (<1) n (%) | Nausea, Grade 3-4 (human): <1% | Nausea, Grade 4 (human): 0 n (%) | Overall incidence of adverse events regardless of causality (human): > 99% | Pain in extremity, All Grades (human): 8% | Pain in extremity, Grade 1-2 (human): 31 (10) n (%) | Pain in extremity, Grade 3 (human): 1 (<1) n (%) | Pain in extremity, Grade 3-4 (human): <1% | Pain in extremity, Grade 4 (human): 0 n (%) | Palmar-plantar erythrodysaesthesia syndrome, Grade 1-2 (human): 16 (5) n (%) | Palmar-plantar erythrodysaesthesia syndrome, Grade 3 (human): 3 (<1) n (%) | Palmar-plantar erythrodysaesthesia syndrome, Grade 4 (human): 0 n (%) | Palmar-plantar erythrodysesthesia syndrome, All Grades (human): 6% | Palmar-plantar erythrodysesthesia syndrome, Grade 3-4 (human): <1% | Patients with dose reduced (human): 24% | Patients with dose reductions (human): 25% | Platelets decreased, All Grades (human): 27% | Platelets decreased, Grade 3-4 (human): <1% | Proteinuria, All Grades (human): 9% | Proteinuria, Grade 1-2 (human): 28 (9) n (%) | Proteinuria, Grade 3 (human): 2 (<1) n (%) | Proteinuria, Grade 3-4 (human): <1% | Proteinuria, Grade 4 (human): 0 n (%) | Pruritus, Grade 1-2 (human): 48 (15) n (%) | Pruritus, Grade 3 (human): 1 (<1) n (%) | Pruritus, Grade 4 (human): 0 n (%) | Pulmonary embolism (human): 0.3% | Pyrexia, Grade 1-2 (human): 57 (18) n (%) | Pyrexia, Grade 3 (human): 2 (<1) n (%) | Pyrexia, Grade 4 (human): 0 n (%) | Rash, All Grades (human): 43% | Rash, Grade 1-2 (human): 92 (29) n (%) | Rash, Grade 3 (human): 2 (<1) n (%) | Rash, Grade 3-4 (human): <1% | Rash, Grade 4 (human): 0 n (%) | Serious adverse events ≥grade 3 (human): 129 (40%) n (%) | Stomatitis, All Grades (human): 24% | Stomatitis, Grade 1-2 (human): 71 (22) n (%) | Stomatitis, Grade 3 (human): 7 (2) n (%) | Stomatitis, Grade 3-4 (human): 2% | Stomatitis, Grade 4 (human): 0 n (%) | Study treatment discontinuation due to diarrhea (human): 0.9% | Treatment discontinuation due to an adverse event not related to disease progression (human): 10% | Treatment-emergent hypertension (human): 7.1% | Treatment-emergent hypertension, Grade ≥3 (human): 3.1% | Triglycerides increased, All Grades (human): 73% | Triglycerides increased, Grade 3-4 (human): 13% | Venous thromboembolism (human): 2.5% | Vomiting, All Grades (human): 14% | Vomiting, Grade 1-2 (human): 44 (14) n (%) | Vomiting, Grade 3 (human): 3 (<1) n (%) | Vomiting, Grade 3-4 (human): <1% | Vomiting, Grade 4 (human): 0 n (%) | Weight decreased, All Grades (human): 12% | Weight decreased, Grade 1-2 (human): 42(13) n (%) | Weight decreased, Grade 3 (human): 0 n (%) | Weight decreased, Grade 3-4 (human): 0% | Weight decreased, Grade 4 (human): 0 n (%) | White blood cells decreased, All Grades (human): 31% | White blood cells decreased, Grade 3-4 (human): <1% | Grade 5 adverse events assessed as treatment-related: two

Source: patent US11141413B2, “Method of treating renal cell carcinoma using N-(4-(6,7-dimethoxyquinolin-4-yloxy)phenyl)-N′-(4-fluorophenyl)cyclopropane-1,1-dicarboxamide, (2S)-hydroxybutanedioate” (Exelixis, Inc., priority 2016, dated 2021)
